“Also recorded” adds a separate entry of the source.
Assays:
[1] = test system: 3D primary human hepatocyte (PHH) spheroid NASH model; assay: Intracellular lipid accumulation (AdipoRed) in 3D PHH:NPC NASH spheroids; assay type: cell-based; settings: NASH medium; for lipid contents of spheroids compared to NASH (100%): 1 week of exposure
Description: (§1) Experiments were conducted using HepaPredict's (HepaPredict AB, Sweden) 3D primary human hepatocyte (PHH) spheroid NASH model (e.g. as published in Bell et al. Sci Rep. 2016 May 4; 6:25187. doi: 10.1038/srep25187).
(§2) Cryopreserved primary human hepatocytes were obtained from BioIVT (USA) and nonparenchymal cells (NPC) from LifeNetHealth (USA). After thawing, PHH-NPC cocultures were seeded in a multi-well 96-well Elplasia plate (Corning) in William's E medium containing 11 mM glucose, 10 μg/mL (control) or 10 mg/mL insulin (NASH), 100 nM dexamethasone, 5.5 mg/L transferrin, 6.7 μg/L selenite, 2 mM L-glutamine, 1 U/mL penicillin, 0.1 mg/mL streptomycin, and 10% fetal bovine serum (FBS). PHH-NPC cocultures were seeded in ratio of 6:1 PHH:NPC with a total of 40,000 PHH per well. When spheroids were formed, FBS was phased out and spheroids were maintained in either the same media to provide the negative control (“Ctrl”), or with addition of albumin-conjugated free fatty acid (FFA), comprised of 240 μM palmitic acid and 240 μM oleic acid (NASH medium) to provide the positive control (“NASH”). Compound exposure was conducted in NASH medium with medium exchanges every 48-72 hours.
For cell viability and intracellular lipid accumulation assays, cells were seeded as previously reported (Bell et al., SciRep, 2016). In short, PHH and NPC were seeded as a single spheroid per well into 96-well ultra-low attachment (ULA) plates (Corning) at 1,500 viable cells per well with the PHH:NPC ratio 6:1.
(§3) After spheroid formation, cells were exposed to up to five different concentrations of the candidate molecules HK1 or HK3 (0.1 μM, 0.3 μM, 1 μM, 3 μM, and 10 μM) with or without FFA in the culture medium. All compound stocks and dilutions were prepared in DMSO, aliquoted and stored protected from light at −20° C. Fresh dosing solutions were prepared from these aliquots on each dosing day. All endpoints were evaluated after 14 days of exposure.
(§4) For statistical comparisons, normalized values for a given condition were compared to either the corresponding vehicle (DMSO) controls or the respective FFA (NASH) controls at the same time point using heteroscedastic unpaired two-tailed t-tests.
Intracellular lipid accumulation was quantified using the AdipoRed Adipogenesis Assay Kit (Lonza) following the manufacturer's instructions. […] Afterwards, spheroids were disrupted by vigorous pipetting and fluorescence was measured (Ex/Em: 485/572) using a SpectraMax iD5 multi-mode microplate reader (Molecular Devices).
To evaluate whether the two candidate compounds HK1 and HK3 impacted hepatic steatosis, we assessed their impact on intracellular triglyceride accumulation after 1 week of exposure. […]

[2] = test system: caspase 3/7 activity in primary human hepatocytes; assay: Caspase 3/7 activity provoked by palmitate in primary human hepatocytes; assay type: cell-based; settings: Hepatocyte, 10 μM pre-treatment + palmitate 200 μM, read-out: caspase 3/7 activity, % of control
Description: The potential protective effect of HK1 and HK3 on caspase 3/7 activity in HepG2 cells and primary human hepatocytes was analysed.
HepG2 cells were obtained from Merck (Darmstadt, Germany) (ECACC-certified), while primary human hepatocytes were obtained from Thermo Fisher Scientific (Waltham, MA, USA), and all were cultured according to the instructions of the respective manufacturers. During experiments, cells were cultured in serum-free medium. Unless otherwise stated, cells were treated with 200 μM bovine serum albumin (BSA)-conjugated palmitate (Cayman Chemicals, Ann Arbor, MI) alone or in combination with 10 μM HK1 (Taros Chemicals GmbH & Co. KG, Dortmund, Germany) and HK3 (Taros Chemicals GmbH & Co. KG, Dortmund, Germany) 30 min prior to palmitate exposure for 24 hours. The vehicle BSA was used according to the palmitate concentration and DMSO according to HK1 and HK3 concentration. 2 μM Staurosporine (Abcam, Cambridge, GB) was used as a positive and 100 μM Caspase 3/7 inhibitor (CI) (Cayman Chemicals) as a negative control.
Differences were analysed by one-way ANOVA.

[3] = test system: pro-collagen 1a1 in 3D PHH:NPC spheroid supernatants; assay: Pro-collagen 1a1 ELISA in supernatants of 3D PHH:NPC NASH spheroids; assay type: cell-based, human; settings: NASH medium
Description: as §1, §2
as §3, with “exposure. […]” for “exposure.”
Supernatant from each well was collected and stored at […]. On the day of the measurement, samples were thawed and fibrosis was evaluated using the Human Pro-collagen 1 alpha 1 DuoSet ELISA (R&D Systems) where pro-collagen 1a1 levels were measured in culture supernatants. […]

[4] = test system: IL-6 secretion in 3D PHH:NPC spheroids; assay: IL-6 secretion (Luminex) by 3D PHH:NPC NASH spheroids; assay type: cell-based, human; settings: for IL-6 levels compared to NASH: NASH medium
Description: as §1, §2, §3, §4
Secreted cytokines (IL-6 and IL-8) were measured in culture supernatants using a customized Magnetic Luminex Performance Assay (Human Cytokine Panel A, R&D Systems). The multiplexed assay was performed following the manufacturer's instructions. Standard curves were generated by resuspending the human recombinant cytokines mixture at concentrations ranging from […] with 8 points at 1:3 series dilution for the customized selection of […], IL-6 and IL-8/CXCL8. […] The fluorescence intensity was measured using a Bio-Plex 200 system (Bio-Rad), the median fluorescence intensity of each analyte was analyzed with the Bio-Plex Manage software (version 6.2) using a 5-parameter regression algorithm. […]
To assess the effect of the two candidate compounds HK1 and HK3 on hepatic inflammation, we measured levels of the pro-inflammatory cytokines IL-6 and IL-8.

SMILES	lipid contents of spheroids compared to NASH (100%) ([1]; 1 μM)	lipid contents of spheroids compared to NASH (100%) ([1]; 3 μM)	lipid contents of spheroids compared to NASH (100%) ([1]; 10 μM)	activity at 10 µM [2]	accumulation of intracellular lipids compared to the positive control ([1]; across 1 μM, 3 μM and 10 μM, 1 week)	pro-collagen 1a1 levels compared to NASH ([3]; 1 μM)	pro-collagen 1a1 levels compared to NASH ([3]; 3 μM)	pro-collagen 1a1 levels compared to NASH ([3]; 10 μM)	IL-6 levels compared to NASH ([4]; 1 μM)	IL-6 levels compared to NASH ([4]; 3 μM)	IL-6 levels compared to NASH ([4]; 10 μM)	IL-6 secretion, effect in words ([4]; NASH spheroids, 1-10 μM)
Cc1cc(NC(=S)/C(C#N)=C(\O)C2CC2)ccc1F [HK1, 2-Cyano-3-cyclopropyl-N-(4-fluoro-3-methyl-phenyl)-3-hydroxy-thioacrylamide]	79%	81%	62%	85.6%	–	–	–	–	–	–	–	–
Cc1cc(NC(=S)/C(C#N)=C(\O)C2CC2)ccc1[N+](=O)[O-] [HK3, 2-Cyano-3-cyclopropyl-3-hydroxy-N-(3-methyl-4-nitro-phenyl)-thioacrylamide]	–	–	–	41.7%	46-49%	82%	73%	64%	73%	55%	72%	slight decrease; also recorded: stronger decrease

From US20260191815A1, “THIOACRYLAMIDE DERIVATIVES FOR USE IN THE PREVENTION OR TREATMENT OF LIVER FIBROSIS” (CMR CUREDIAB METABOLIC RESEARCH GMBH, priority 2022, published 2026)
